# Values of other authors in patent US20190350829A1, “AN ANTIMICROBIAL COMPOSITION” (Conopco, Inc., d/b/a UNILEVER, priority 2016, published 2019).
# Read-outs that look alike come from different tables or passages of the source.
compound,measurement,setting,value
CCCCC(C)CCC(=O)O (centres unmarked) [4-methyl octanoic acid],pKa,,4.89
same,pKa,listed as methyl caprylic acid,4.93
